From ChEMBL document CHEMBL1201862, “PubChem BioAssay data set” (2004)
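48-hour exposure; five concentrations; linearly interpolated endpoints. At the GI50, growth is halved.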 Calls of active or inactive are those of the source. No stated cut-off is given here; in the data, active = GI50 up to about 1.1 µM and inactive = higher.

What was measured:
Assay in all cases: NCI anticancer screen, dose series, 48 h
[1] = test system: SR
[2] = test system: OVCAR-8
[3] = test system: UACC-62
[4] = test system: SK-OV-3
[5] = test system: HOP-62
[6] = test system: K562
[7] = test system: ACHN
[8] = test system: SNB-75
[9] = test system: RPMI-8226
[10] = test system: SF-268
[11] = test system: SF-539
[12] = test system: NCI/ADR-RES
[13] = test system: MCF7
[14] = test system: SK-MEL-28
[15] = test system: SN12C
[16] = test system: NCI-H23
[17] = test system: A549
[18] = test system: NCI-H522
[19] = test system: SW-620
[20] = test system: MDA-MB-231

Row | Compound | GI50 [1] | GI50 [2] | GI50 [3] | GI50 [4] | GI50 [5] | GI50 [6] | GI50 [7] | GI50 [8] | GI50 [9] | GI50 [10] | GI50 [11] | GI50 [12] | GI50 [13] | GI50 [14] | GI50 [15] | GI50 [16] | GI50 [17] | GI50 [18] | GI50 [19] | GI50 [20]
1 | CCOP(=O)(CCCC(O)CNc1nc(N)nc(Cl)c1/N=N/c1ccc(Cl)cc1)OCC (stereo not given) | 2.64 µM (inactive) | 8.47 µM (inactive) | 5.13 µM (inactive) | 3.19 µM (inactive) | 9.89 µM (inactive) | 4.63 µM (inactive) | 4.05 µM (inactive) | 3.29 µM (inactive) | 2.82 µM (inactive) | 4.27 µM (inactive) | 9.25 µM (inactive) | 10.4 µM (inactive) | 11.9 µM (inactive) | 8.22 µM (inactive) | 5.15 µM (inactive) | 12.1 µM (inactive) | 10.6 µM (inactive) | 5.69 µM (inactive) | 12.3 µM (inactive) | 2.59 µM (inactive)
2 | O=C(Cc1csc2[n+]1C(=O)/C(=C/c1ccc(Cl)cc1)S2)Nc1ccccc1 | 24.3 µM (inactive) | 40.7 µM (inactive) | 10 µM (inactive) | 19.4 µM (inactive) | 2.01 µM (inactive) | 21.7 µM (inactive) | 15.4 µM (inactive) | 23.5 µM (inactive) | 23.4 µM (inactive) | 21.5 µM (inactive) | 27.8 µM (inactive) | 21.7 µM (inactive) | 15.4 µM (inactive) | 30.4 µM (inactive) | 32.1 µM (inactive) | 24.2 µM (inactive) | 24.1 µM (inactive) | 15.3 µM (inactive) | 26.4 µM (inactive) | 14.8 µM (inactive)
3 | O=C(O)C1C(Br)(c2ccccc2)C1(Br)c1ccccc1 (stereo not given) | 2.88 µM (inactive) | 23 µM (inactive) | 17.9 µM (inactive) | 27.5 µM (inactive) | 37 µM (inactive) | 20.1 µM (inactive) | 14.3 µM (inactive) | 35.3 µM (inactive) | 11.8 µM (inactive) | 24.3 µM (inactive) | 52.7 µM (inactive) | 52.4 µM (inactive) | 22 µM (inactive) | 21.5 µM (inactive) | 34.4 µM (inactive) | 38.4 µM (inactive) | 39 µM (inactive) | 17.6 µM (inactive) | 31.4 µM (inactive) | 39.7 µM (inactive)
4 | COc1cc(/C=C/C(=O)Oc2ccc(NC(C)=O)cc2)ccc1C(=O)OCc1ccccc1 | > 100 µM (inactive) | > 88.9 µM (inactive) | 69.2 µM (inactive) | 48.4 µM (inactive) | 53.8 µM (inactive) | > 100 µM (inactive) | > 73.8 µM (inactive) | 20 µM (inactive) | > 100 µM (inactive) | 56.6 µM (inactive) | 36.3 µM (inactive) | > 100 µM (inactive) | > 86.5 µM (inactive) | > 100 µM (inactive) | > 92.5 µM (inactive) | > 89.9 µM (inactive) | > 97.1 µM (inactive) | > 85.9 µM (inactive) | > 100 µM (inactive) | > 100 µM (inactive)
5 | CCCCCCC/C=C1\CCC(CN(C)C)C1=O (stereo not given) | 3.47 µM (inactive) | 9.77 µM (inactive) | 14.6 µM (inactive) | 23.7 µM (inactive) | 17.6 µM (inactive) | 2.83 µM (inactive) | 17.6 µM (inactive) | 18.5 µM (inactive) | 0.968 µM (active) | 17.4 µM (inactive) | 16.6 µM (inactive) | 2.61 µM (inactive) | 3.24 µM (inactive) | 16.9 µM (inactive) | 9.1 µM (inactive) | 16.4 µM (inactive) | 22.6 µM (inactive) | 5.48 µM (inactive) | 6.19 µM (inactive) | 3.2 µM (inactive)
6 | Cc1c(Cl)nc(Cl)nc1Cl | 0.434 µM (active) | 2.48 µM (inactive) | 4 µM (inactive) | 3.91 µM (inactive) | 4.97 µM (inactive) | 0.6 µM (active) | 0.421 µM (active) | 5.68 µM (inactive) | 2.38 µM (inactive) | 1.73 µM (inactive) | 2.43 µM (inactive) | 1.36 µM (inactive) | 0.984 µM (active) | 3.18 µM (inactive) | 2.69 µM (inactive) | 2.18 µM (inactive) | 2.69 µM (inactive) | 0.044 µM (active) | 1.27 µM (inactive) | 1.43 µM (inactive)
7 | CC(C)=CCC/C(C)=C/CC/C(C)=C/CC/C(=C/CC/C(C)=C\CC/C(C)=C/CC/C(C)=C/CC/C(C)=C/Cc1cc(O)ccc1O)CO | 3.26 µM (inactive) | 3.75 µM (inactive) | 1.18 µM (inactive) | 10.9 µM (inactive) | 11.3 µM (inactive) | 17.7 µM (inactive) | 12.4 µM (inactive) | 4.02 µM (inactive) | 1.82 µM (inactive) | 2.67 µM (inactive) | 0.824 µM (active) | 4.51 µM (inactive) | 2.55 µM (inactive) | 2.29 µM (inactive) | 17.6 µM (inactive) | 0.979 µM (active) | 4.14 µM (inactive) | 1.57 µM (inactive) | 8.71 µM (inactive) | 27.3 µM (inactive)
